From patent publication US10212936B2, “Molecules having pesticidal utility, and intermediates, compositions, and processes, related thereto” (priority 2014, dated 2019)

Legend:
Format in all cases: in vivo
[1] = test system: Cabbage Looper (Trichoplusia ni, TRIPNI); experiment: Bioassay on Cabbage Looper (CL), 128-well diet tray assay; details: 168 h, 50 μg/cm^2 on artificial diet, second instar larvae, five to seven days, 25° C., read-out: CL % Control (or Mortality) rating
Protocol: (§1) Example A: Bioassays on Beet Armyworm (Spodoptera exigua, LAPHEG) (“BAW”), Corn Earworm (Helicoverpa zea, HELIZE) (“CEW”), and Cabbage Looper (Trichoplusia ni, TRIPNI) (“CL”)
(§2) Certain molecules disclosed in this document were tested against BAW, CEW, and CL using procedures described in the following examples. In the reporting of the results, the “BAW, CEW, & CL Rating Table” was used (See Table Section).
Bioassays on CL were conducted using a 128-well diet tray assay. one to five second instar CL larvae were placed in each well (3 mL) of the diet tray that had been previously filled with 1 mL of artificial diet to which 50 μg/cm^2 of the test molecule (dissolved in 50 μL of 90:10 acetone-water mixture) had been applied (to each of eight wells) and then allowed to dry. Trays were covered with a clear self-adhesive cover and held at 25° C., 14:10 light-dark for five to seven days. Percent mortality was recorded for the larvae in each well; activity in the eight wells was then averaged. The results are indicated in the table entitled “Table ABC: Biological Results” (See Table Section).

[2] = test system: Beet Armyworm (Spodoptera exigua, LAPHEG); experiment: Bioassay on Beet Armyworm (BAW), 128-well diet tray assay; details: 168 h, 50 μg/cm^2 on artificial diet, second instar larvae, five to seven days, 25° C., read-out: BAW % Control (or Mortality) rating
Protocol: as §1, §2
Bioassays on BAW were conducted using a 128-well diet tray assay. one to five second instar BAW larvae were placed in each well (3 mL) of the diet tray that had been previously filled with 1 mL of artificial diet to which 50 μg/cm^2 of the test molecule (dissolved in 50 μL of 90:10 acetone-water mixture) had been applied (to each of eight wells) and then allowed to dry. Trays were covered with a clear self-adhesive cover and held at 25° C., 14:10 light-dark for five to seven days. Percent mortality was recorded for the larvae in each well; activity in the eight wells was then averaged. The results are indicated in the table entitled “Table ABC: Biological Results” (See Table Section).

[3] = test system: Corn Earworm (Helicoverpa zea, HELIZE); experiment: Bioassay on Corn Earworm (CEW), 128-well diet tray assay; details: 168 h, 50 μg/cm^2 on artificial diet, second instar larvae, five to seven days, 25° C., read-out: CEW % Control (or Mortality) rating
Protocol: as §1, §2
Bioassays on CEW were conducted using a 128-well diet tray assay. one to five second instar CEW larvae were placed in each well (3 mL) of the diet tray that had been previously filled with 1 mL of artificial diet to which 50 μg/cm^2 of the test molecule (dissolved in 50 μL of 90:10 acetone-water mixture) had been applied (to each of eight wells) and then allowed to dry. Trays were covered with a clear self-adhesive cover, and held at 25° C., 14:10 light-dark for five to seven days. Percent mortality was recorded for the larvae in each well; activity in the eight wells was then averaged. The results are indicated in the table entitled “Table ABC: Biological Results” (See Table Section).

[4] = test system: Yellow Fever Mosquito (Aedes aegypti, AEDSAE); experiment: Bioassay on Yellow Fever Mosquito (YFM) larvae, 96-well plate; details: about 1 day-old larvae, 4000 ppm DMSO master plate diluted, graded after 3 days
Protocol: Example C: Bioassays on Yellow Fever Mosquito (Aedes aegypti, AEDSAE) (“YFM”)
Certain molecules disclosed in this document were tested against YFM using procedures described in the following paragraph. In the reporting of the results, the “YFM Rating Table” was used (See Table Section).
Master plates containing 400 μg of a molecule dissolved in 100 μL of dimethyl sulfoxide (DMSO) (equivalent to a 4000 ppm solution) are used. A master plate of assembled molecules contains 15 μL per well. To this plate, 135 μL of a 90:10 water:acetone mixture is added to each well. A robot (Biomek® NXP Laboratory Automation Workstation) is programmed to dispense 15 μL aspirations from the master plate into an empty 96-well shallow plate (“daughter” plate). There are 6 reps (“daughter” plates) created per master. The created daughter plates are then immediately infested with YFM larvae.
The day before plates are to be treated, mosquito eggs are placed in Millipore water containing liver powder to begin hatching (4 g. into 400 mL). After the daughter plates are created using the robot, they are infested with 220 μL of the liver powder/larval mosquito mixture (about 1 day-old larvae). After plates are infested with mosquito larvae, a non-evaporative lid is used to cover the plate to reduce drying. Plates are held at room temperature for 3 days prior to grading. After 3 days, each well is observed and scored based on mortality. The results are indicated in the table entitled “Table ABC: Biological Results” (See Table Section).

Row | SMILES | mortality at 50 µg/cm2 [1] [%] | mortality at 50 µg/cm2 [2] [%] | mortality at 50 µg/cm2 [3] [%] | YFM % Control (or Mortality) rating [4]
1 | O=C(Nc1ccc(-c2ncn(-c3ccc(OC(F)(F)F)cc3)n2)cc1)Nc1nccn1-c1ccccc1 [F20, 1-(1-Phenyl-1H-imidazol-2-yl)-3-(4-(1-(4-(trifluoromethoxy)phenyl)-1H-1,2,4-triazol-3-yl)phenyl)urea] | 50 to 100 | 50 to 100 | 50 to 100 | –
2 | Cc1ccccc1-n1ccnc1NC(=O)Nc1ccc(-c2ncn(-c3ccc(OC(F)(F)F)cc3)n2)cc1 [F21, 1-(1-(o-Tolyl)-1H-imidazol-2-yl)-3-(4-(1-(4-(trifluoromethoxy)phenyl)-1H-1,2,4-triazol-3-yl)phenyl)urea] | 50 to 100 | 50 to 100 | 50 to 100 | –
3 | CC(C)c1ccccc1-n1ccnc1NC(=O)Nc1ccc(-c2ncn(-c3ccc(OC(F)(F)F)cc3)n2)cc1 [F22, 1-(1-(2-Isopropylphenyl)-1H-imidazol-2-yl)-3-(4-(1-(4-(trifluoromethoxy)phenyl)-1H-1,2,4-triazol-3-yl)phenyl)urea] | 50 to 100 | 50 to 100 | 50 to 100 | –
4 | COc1cccc(-n2ccnc2NC(=O)Nc2ccc(-c3ncn(-c4ccc(OC(F)(F)F)cc4)n3)cc2)c1 [F23, 1-(1-(3-Methoxyphenyl)-1H-imidazol-2-yl)-3-(4-(1-(4-(trifluoromethoxy)phenyl)-1H-1,2,4-triazol-3-yl)phenyl)urea] | 50 to 100 | 50 to 100 | 50 to 100 | –
5 | Cc1cccc(-n2ccnc2NC(=O)Nc2ccc(-c3ncn(-c4ccc(OC(F)(F)F)cc4)n3)cc2)c1 [F24, 1-(1-(m-Tolyl)-1H-imidazol-2-yl)-3-(4-(1-(4-(trifluoromethoxy)phenyl)-1H-1,2,4-triazol-3-yl)phenyl)urea] | 50 to 100 | 50 to 100 | 50 to 100 | –
6 | CC(C)c1cccc(-n2ccnc2NC(=O)Nc2ccc(-c3ncn(-c4ccc(OC(F)(F)F)cc4)n3)cc2)c1 [F25, 1-(1-(3-Isopropylphenyl)-1H-imidazol-2-yl)-3-(4-(1-(4-(trifluoromethoxy)phenyl)-1H-1,2,4-triazol-3-yl)phenyl)urea] | 50 to 100 | 50 to 100 | 50 to 100 | –
7 | CCc1cccc(-n2ccnc2NC(=O)Nc2ccc(-c3ncn(-c4ccc(OC(F)(F)F)cc4)n3)cc2)c1 [F26, 1-(1-(3-Ethylphenyl)-1H-imidazol-2-yl)-3-(4-(1-(4-(trifluoromethoxy)phenyl)-1H-1,2,4-triazol-3-yl)phenyl)urea] | 50 to 100 | 50 to 100 | 50 to 100 | –
8 | O=C(Nc1ccc(-c2ncn(-c3ccc(OC(F)(F)F)cc3)n2)cc1)Nc1nccn1-c1cccc(Cl)c1 [F27, 1-(1-(3-Chlorophenyl)-1H-imidazol-2-yl)-3-(4-(1-(4-(trifluoromethoxy)phenyl)-1H-1,2,4-triazol-3-yl)phenyl)urea] | 50 to 100 | 50 to 100 | 50 to 100 | –
9 | Cc1ccc(-n2ccnc2NC(=O)Nc2ccc(-c3ncn(-c4ccc(OC(F)(F)F)cc4)n3)cc2)cc1 [F29, 1-(1-(p-Tolyl)-1H-imidazol-2-yl)-3-(4-(1-(4-(trifluoromethoxy)phenyl)-1H-1,2,4-triazol-3-yl)phenyl)urea] | 50 to 100 | 50 to 100 | 50 to 100 | –
10 | COc1ccc(-n2ccnc2NC(=O)Nc2ccc(-c3ncn(-c4ccc(OC(F)(F)F)cc4)n3)cc2)cc1 [F30, 1-(1-(4-Methoxyphenyl)-1H-imidazol-2-yl)-3-(4-(1-(4-(trifluoromethoxy)phenyl)-1H-1,2,4-triazol-3-yl)phenyl)urea] | 50 to 100 | 50 to 100 | 50 to 100 | –
11 | O=C(Nc1ccc(-c2ncn(-c3ccc(OC(F)(F)F)cc3)n2)cc1)Nc1nccn1-c1ccccn1 [F31, 1-(1-(Pyridin-2-yl)-1H-imidazol-2-yl)-3-(4-(1-(4-(trifluoromethoxy)phenyl)-1H-1,2,4-triazol-3-yl)phenyl)urea] | 50 to 100 | 50 to 100 | 50 to 100 | –
12 | O=C(Nc1ccc(-c2ncn(-c3ccc(OC(F)(F)F)cc3)n2)cc1)Nc1nccn1-c1ccncc1 [F33, 1-(1-(Pyridin-4-yl)-1H-imidazol-2-yl)-3-(4-(1-(4-(trifluoromethoxy)phenyl)-1H-1,2,4-triazol-3-yl)phenyl)urea] | 50 to 100 | 50 to 100 | 50 to 100 | –
13 | O=C(NCCc1ccc(-c2ncn(-c3ccc(OC(F)(F)F)cc3)n2)cc1)Nc1ncc(-c2ccccc2)o1 [F52, 1-(5-phenyloxazol-2-yl)-3-(4-(1-(4-(trifluoromethoxy)phenyl)-1H-1,2,4-triazol-3-yl)phenethyl)urea] | 50 to 100 | 50 to 100 | 0 | –
14 | Cn1oc(NC(=O)NCCc2ccc(-c3ncn(-c4ccc(OC(F)(F)F)cc4)n3)cc2)c(-c2c(Cl)cccc2Cl)c1=O [F60, 1-(4-(2,6-Dichlorophenyl)-2-methyl-3-oxo-2,3-dihydroisoxazol-5-yl)-3-(4-(1-(4-(trifluoromethoxy)phenyl)-1H-1,2,4-triazol-3-yl)phenethyl)urea] | 50 to 100 | 50 to 100 | – | A (80-100)
15 | CCc1ccccc1-c1ncsc1NC(=O)NCCc1ccc(-c2ncn(-c3ccc(OC(F)(F)F)cc3)n2)cc1 [F61, 1-(4-(2-ethylphenyl)thiazol-5-yl)-3-(4-(1-(4-(trifluoromethoxy)phenyl)-1H-1,2,4-triazol-3-yl)phenethyl)urea] | 50 to 100 | 0 | – | A (80-100)
16 | Cc1ccc(C)c(-c2ncsc2NC(=O)NCCc2ccc(-c3ncn(-c4ccc(OC(F)(F)F)cc4)n3)cc2)c1 [F62, 1-(4-(2,5-Dimethylphenyl)thiazol-5-yl)-3-(4-(1-(4-(trifluoromethoxy)phenyl)-1H-1,2,4-triazol-3-yl)phenethyl)urea] | 50 to 100 | 0 | – | A (80-100)
17 | COc1ccc(-c2ncsc2NC(=O)NCCc2ccc(-c3ncn(-c4ccc(OC(F)(F)F)cc4)n3)cc2)c(C)c1 [F63, 1-(4-(4-Methoxy-2-methylphenyl)thiazol-5-yl)-3-(4-(1-(4-(trifluoromethoxy)phenyl)-1H-1,2,4-triazol-3-yl)phenethyl)urea] | 50 to 100 | 0 | – | A (80-100)
18 | O=C(NCCc1ccc(-c2ncn(-c3ccc(OC(F)(F)F)cc3)n2)cc1)Nc1scnc1-c1c(Cl)cccc1Cl [F64, 1-(4-(2,6-Dichlorophenyl)thiazol-5-yl)-3-(4-(1-(4-(trifluoromethoxy)phenyl)-1H-1,2,4-triazol-3-yl)phenethyl)urea] | 50 to 100 | 0 | – | A (80-100)
